System: β glucosidase
Experiment: Effect of FeSO4 on β glucosidase
Type: biochemical, Rauvolfia serpentina
Settings: for Fold activity enhanced: relative to 0 mM
Description: Rauvolfia serpentina (Sarpgandha) plants were raised from root cuttings at the glass house of Central Institute of Medicinal and Aromatic Plants (CIMAP), Lucknow by following standard agronomic practices. The extraction of the glucosidase enzyme was optimized with respect to buffer, pH, protecting and stabilizing agents to obtain maximum extractable activity. All the operations of enzyme isolation were carried out at 0-4° C. unless specified otherwise. The extraction medium of present invention also relates to a process for the extraction of a B glucosidase from plant tissues from a natural source and useful for the cleaving of β-1,4 linkage of PNPG, said process comprising: homogenizing the plant tissue in a cold extraction medium (1 g tissue/3 ml). Flowers of Rauvolfia serpentina were homogenized in 100 mM K-phosphate buffer (pH 6.0) including 10 mM β-Mercapto ethanol and 2 mM E.D.T.A. (Ethylene Diamine Tetra Acetic Acid). The tissue homogenate was centrifuged at 12,000×g for 30 min at 4° C. and the clear supernatant was collected. Assays specific for the determination of optimum pH, optimum temperature, stability and activation were performed.
Enzyme activity was assayed using the modified method described by Stevens et al, assay mixture in a total volume of 200 μL contained 2.5 mM p-nitrophenyl β-D-glucopyranoside in 100 mM Citrate-Phosphate buffer (pH 5) at defined temperatures with 10 μL of enzyme preparation. After 15 min of incubation time the reaction was stopped by adding 800 μL of 1M Sodium carbonate and the absorbance of p-nitrophenol (the product of reaction) was measured at wavelength 405 nm.
Calculation of Units: The enzyme activity was expressed in terms of μmole of p-nitrophenol formed per minute using the molar extinction coefficient (E) 18,350 m^−1 cm^−1 [Estibalitz, O., Richard, O. A., and Ioannis, Z., 2001. The role of β-glucosidase in biosynthesis of 2,5-dimethyl-4-hydroxy-3 (2H)-furanone in strawberry. Flavour and Fragrance J., 16: 81-84.]

- β glucosidase Activity (I.U.) (FeSO4 Conc. 1 mM): 71.93 I.U.
- Fold activity enhanced (FeSO4 Conc. 1 mM): 1.74 Fold
- β glucosidase Activity (I.U.) (FeSO4 Conc. 5 mM): 335.69 I.U.
- Fold activity enhanced (FeSO4 Conc. 5 mM): 8.11 Fold
- β glucosidase Activity (I.U.) (FeSO4 Conc. 10 mM): 627.79 I.U.
- Fold activity enhanced (FeSO4 Conc. 10 mM): 15.16 Fold
- effect of FeSO4 on enzyme activity (in words): activation
SMILES: O=S(=O)([O-])[O-].[Fe+2] [FeSO4]

— US20070212745A1, “BETA-GLUCOSIDASE AND A PROCESS FOR EXTRACTION THEREOF” (priority 2006, published 2007)
